Experimental data as given in paper PMC11233000, “Characterization of BrGH3A, a bovine rumen-derived glycoside hydrolase family 3 β-glucosidase with a permuted domain arrangement” (PLOS ONE, 2024).

Assays:
BrGH3A [1] = system: T1, BrGH3A; assay: p-nitrophenol release, absorbance […] nm; assay type: biochemical, metagenome: bovine ruminal fluid; settings: 0.1 M sodium citrate, pH 5.0, 40°C, 5 min
T1 construct: C-FnIII-N domain order is natural

BrGH3A [2] = system: T1, BrGH3A; assay: glucose release, glucose oxidase/ABTS; assay type: biochemical, metagenome: bovine ruminal fluid; settings: 0.1 M sodium citrate, pH 5.0, 40°C, 5 min
Text: glucose release, glucose oxidase/ABTS on BrGH3A

[3] = released glucose divided by two

Row | SMILES | Km (BrGH3A [1]) [mM] | also measured
1 | OC[C@H]1O[C@@H](O[C@@H]2[C@@H](O)[C@H](O[C@H]3[C@H](O)[C@@H](CO)OC(O)[C@@H]3O)O[C@H](CO)[C@H]2O)[C@H](O)[C@@H](O)[C@@H]1O (some centres unmarked) [Laminaritriose] |  | Km (BrGH3A [2]; calculated as total released glucose): 5.4 ± 0.42 mM
2 | O=[N+]([O-])c1ccc(O[C@@H]2OC[C@H](O)[C@H](O)[C@H]2O)cc1 [pNP-Ara, p-nitrophenyl-α-L-arabinopyranoside] | 9.95 ± 1.16 | 
3 | OC[C@H]1O[C@@H](O[C@H]2[C@H](O)[C@@H](CO)OC(O)[C@@H]2O)[C@H](O)[C@@H](O)[C@@H]1O (some centres unmarked) [Laminaribiose] |  | Km (BrGH3A [2]; [3]): 14.3 ± 1.3 mM
4 | OC[C@H]1O[C@@H](O[C@H]2[C@H](O)[C@@H](O)C(O)O[C@@H]2CO)[C@H](O)[C@@H](O)[C@@H]1O (some centres unmarked) [Cellobiose] |  | Km (BrGH3A [2]; [3]): 30 ± 3.9 mM

The next lines start with results.

Row | Km (BrGH3A [1]) [mM] | SMILES | also measured
5 | 7.96 ± 0.64 | C[C@H]1O[C@@H](Oc2ccc([N+](=O)[O-])cc2)[C@H](O)[C@@H](O)[C@H]1O [pNP-Fuc, p-nitrophenyl-β-D-fucopyranoside] | 
6 | 7.55 ± 0.9 | O=[N+]([O-])c1ccc(O[C@@H]2O[C@H](CO)[C@H](O)[C@H](O)[C@H]2O)cc1 [pNP-Gal, p-nitrophenyl-β-D-galactopyranoside] | 
7 | 2.12 ± 0.1 | O=[N+]([O-])c1ccc(O[C@@H]2OC[C@@H](O)[C@H](O)[C@H]2O)cc1 [pNP-Xyl, p-nitrophenyl-β-D-xylopyranoside] | 
8 | 0.6 ± 0.04 | O=[N+]([O-])c1ccc(O[C@@H]2O[C@H](CO)[C@@H](O)[C@H](O)[C@H]2O)cc1 [pNP-Glc, p-nitrophenyl-β-D-glucopyranoside] | 
